The values below come from PubChem BioAssay AID1963961 (Molecular Pharmacology Branch, DTP, NCI, 2024).

For this assay, the system named is K98450-129-R-PDC multicell spheroids, viability. Nature of the assay: Anticancer human tumor K98450-129-R-PDC patient-derived colon adenocarcinoma cell line growth inhibition [PI3K]. As to conditions: for viability, T/C: stronger effect = lower value. The essentials: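 Stroma-containing spheroids: tumor line, pooled-donor HUVEC, hMSC. Treatments: targeted agents with PI3K inhibitors. Dosing: clinically relevant, half-log spacing, 10 microM ceiling without known Cmax. Read-out: cell viability.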

Where [1] appears, read: curve of first compound, second compound 0.0316 µM.
The mark [2] stands for this setting: curve of first compound, second compound 0.1 µM.
Setting [3] is: curve of first compound, second compound 0.316 µM.
[4] abbreviates: curve of first compound, second compound 1 µM.
The mark [5] stands for this setting: second compound 0.0316 µM, first compound 0.0316 µM.
The mark [6] stands for this setting: second compound 0.0316 µM, first compound 0.1 µM.
The mark [7] stands for this setting: second compound 0.0316 µM, first compound 0.316 µM.
Setting [8] is: second compound 0.0316 µM, first compound 1 µM.
[9] abbreviates: second compound 0.1 µM, first compound 0.0316 µM.
[10] abbreviates: second compound 0.1 µM, first compound 0.1 µM.
[11] abbreviates: second compound 0.1 µM, first compound 0.316 µM.
Setting [12] is: second compound 0.1 µM, first compound 1 µM.
The mark [13] stands for this setting: second compound 0.316 µM, first compound 0.0316 µM.
The mark [14] stands for this setting: second compound 0.316 µM, first compound 0.1 µM.
Where [15] appears, read: second compound 0.316 µM, first compound 0.316 µM.
Where [16] appears, read: second compound 0.316 µM, first compound 1 µM.
Where [17] appears, read: second compound 1 µM, first compound 0.0316 µM.
[18] abbreviates: second compound 1 µM, first compound 0.1 µM.
[19] abbreviates: second compound 1 µM, first compound 0.316 µM.
[20] abbreviates: second compound 1 µM, first compound 1 µM.

Structures are written as SMILES. Where “and” joins values, the source holds several entries; their conditions need not be identical. Identical values can stand only once.
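Further: spheroids exposed to agents for seven days before read-out.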

On to `CNC(=O)c1ccc(N2C(=S)N(c3ccc(C#N)c(C(F)(F)F)c3)C(=O)C2(C)C)cc1F`, for which the viability, T/C (in general, the result in the treated group divided by that in the control group, in per cent) was 105% (2×) and 88.4% and 94.7% (compound 0.0316 µM); 104% (2×) and 91.1% and 96.9% (compound 0.1 µM); 102% (2×) and 88.4% and 109% (compound 0.316 µM); 102% [middle of 4 runs] (compound 1 µM); 107% [middle of 4 runs] (compound 3.16 µM); 113% and 111% (2×) and 90% (compound 10 µM). Also, for the setting “curve of compound”, the IC50 (usually the midpoint of a concentration-inhibition curve) was more than 10 µM.

With `CCCS(=O)(=O)Nc1ccc(F)c(C(=O)c2c[nH]c3ncc(-c4ccc(Cl)cc4)cc23)c1F`, the viability, T/C by setting is: (compound 0.0316 µM) 104% [middle of 4 runs]; (compound 0.316 µM) 116% [middle of 4 runs]; (compound 10 µM) 7.9% [middle of 4 runs]. Moreover, for the setting “curve of compound”, the IC50 was 6.15 µM [middle of 4 runs].

Consider `CC(C)NCC(C(=O)N1CCN(c2ncnc3c2C(C)CC3O)CC1)c1ccc(Cl)cc1` (configuration not stated) + COc1c(OCCCN2CCOCC2)ccc2c3n(c(=NC(=O)c4cnc(N)nc4)nc12)CCN3, for which the IC50 is, setting by setting: (curve of first compound, second compound 0.00316 µM) more than 10 µM; (curve of first compound, second compound 0.01 µM) more than 10 µM; under setting [1], more than 10 µM; under setting [2], more than 10 µM; under setting [3], more than 10 µM; under setting [4], more than 10 µM. Further, the viability, T/C (second compound 0.00316 µM, first compound 0.0316 µM) is 107%; the viability, T/C (second compound 0.00316 µM, first compound 0.1 µM) is 95.9%; the viability, T/C (second compound 0.00316 µM, first compound 0.316 µM) is 115%; the viability, T/C (second compound 0.00316 µM, first compound 1 µM) is 99%; the viability, T/C (second compound 0.00316 µM, first compound 3.16 µM) was 97.4%; the viability, T/C (second compound 0.00316 µM, first compound 10 µM) was 89.8%. Also, the viability, T/C was 111% (second compound 0.01 µM, first compound 0.0316 µM); 106% (second compound 0.01 µM, first compound 0.1 µM); 99.3% (second compound 0.01 µM, first compound 0.316 µM); 98.8% (second compound 0.01 µM, first compound 1 µM); 90.6% (second compound 0.01 µM, first compound 3.16 µM); 93.3% (second compound 0.01 µM, first compound 10 µM). The viability, T/C under setting [5] is 94%; the viability, T/C under setting [6] was 114%; the viability, T/C under setting [7] is 88.4%; the viability, T/C under setting [8] was 95.1%; the viability, T/C (second compound 0.0316 µM, first compound 3.16 µM) was 89.8%; the viability, T/C (second compound 0.0316 µM, first compound 10 µM) is 86.2%. Also, the viability, T/C is 79% under setting [9]; 66.4% under setting [10]; 67% under setting [11]; 73.7% under setting [12]; 95.4% (second compound 0.1 µM, first compound 3.16 µM); 82.9% (second compound 0.1 µM, first compound 10 µM). Besides, the viability, T/C is 69.5% under setting [13]; 73.8% under setting [14]; 58.7% under setting [15]; 65.2% under setting [16]; 68.9% (second compound 0.316 µM, first compound 3.16 µM); 66.3% (second compound 0.316 µM, first compound 10 µM). Also, the viability, T/C is, setting by setting: under setting [17], 54.1%; under setting [18], 49.3%; under setting [19], 55.6%; under setting [20], 45.2%; (second compound 1 µM, first compound 3.16 µM) 59.7%; (second compound 1 µM, first compound 10 µM) 47.5%.

For the compound `CC(C)NCC(C(=O)N1CCN(c2ncnc3c2C(C)CC3O)CC1)c1ccc(Cl)cc1` (configuration not stated), the viability, T/C runs as follows: (compound 0.0316 µM) 94.2% and 100% and 107% (2×); (compound 0.1 µM) 100% (2×) and 93.4% and 105%; (compound 0.316 µM) 105% [middle of 4 runs]; (compound 1 µM) 106% (2×) and 92.7% and 87.9%; (compound 3.16 µM) 93% [middle of 4 runs]; (compound 10 µM) 99.5% and 102% (2×) and 99.9%. Also, the IC50 (curve of compound) was more than 10 µM.

As for `CCN1CCN(Cc2ccc(Nc3ncc(F)c(-c4cc(F)c5nc(C)n(C(C)C)c5c4)n3)nc2)CC1` + CC(Nc1ncnc2nc[nH]c12)c1cc2cccc(Cl)c2c(=O)n1-c1ccccc1, the IC50 under setting [1] was more than 1 µM; the IC50 under setting [2] is more than 1 µM; the half-inhibitory concentration (IC50) under setting [3] was more than 1 µM; the IC50 under setting [4] is more than 1 µM; the IC50 (curve of first compound, second compound 3.16 µM) was more than 1 µM; the half-inhibitory concentration (IC50) (curve of first compound, second compound 10 µM) was more than 1 µM. For the same compound, the viability, T/C (second compound 0.0316 µM, first compound 0.00316 µM) was 111%; the viability, T/C (second compound 0.0316 µM, first compound 0.01 µM) was 102%; the viability, T/C under setting [5] was 109%; the viability, T/C under setting [6] is 83.5%; the viability, T/C under setting [7] is 81.6%; the viability, T/C under setting [8] is 87%. The viability, T/C (second compound 0.1 µM, first compound 0.00316 µM) is 106%; the viability, T/C (second compound 0.1 µM, first compound 0.01 µM) is 107%; the viability, T/C under setting [9] is 91.9%; the viability, T/C under setting [10] was 87.7%; the viability, T/C under setting [11] is 87%; the viability, T/C under setting [12] is 95%. Moreover, the viability, T/C was 101% (second compound 0.316 µM, first compound 0.00316 µM); 108% (second compound 0.316 µM, first compound 0.01 µM); 94.6% under setting [13]; 90.3% under setting [14]; 89.7% under setting [15]; 89.1% under setting [16]. Further, the viability, T/C (second compound 1 µM, first compound 0.00316 µM) was 93.1%; the viability, T/C (second compound 1 µM, first compound 0.01 µM) was 92.5%; the viability, T/C under setting [17] was 95.9%; the viability, T/C under setting [18] is 89.4%; the viability, T/C under setting [19] is 84.8%; the viability, T/C under setting [20] is 102%. For the same compound, the viability, T/C reads like this: (second compound 3.16 µM, first compound 0.00316 µM) 95.1%; (second compound 3.16 µM, first compound 0.01 µM) 91.6%; (second compound 3.16 µM, first compound 0.0316 µM) 81.1%; (second compound 3.16 µM, first compound 0.1 µM) 90.8%; (second compound 3.16 µM, first compound 0.316 µM) 82.4%; (second compound 3.16 µM, first compound 1 µM) 83.2%. In addition, the viability, T/C (second compound 10 µM, first compound 0.00316 µM) is 86%; the viability, T/C (second compound 10 µM, first compound 0.01 µM) was 83.5%; the viability, T/C (second compound 10 µM, first compound 0.0316 µM) is 81.9%; the viability, T/C (second compound 10 µM, first compound 0.1 µM) was 82.5%; the viability, T/C (second compound 10 µM, first compound 0.316 µM) was 86.1%; the viability, T/C (second compound 10 µM, first compound 1 µM) was 78.2%.
